ChEMBL document CHEMBL2151008, “Enhanced ROS production and cell death through combined photo- and sono-activation of conventional photosensitising drugs” (2011)
The source made the active and inactive calls. No cut-off for these calls is given here.

What was measured:
[1] = system: CHO; experiment: Cytotoxicity against CHO cells assessed as cell death at 0.1 to 100 uM after 3 hrs followed by photo/sono-irradiation for 30 secs measured 24 hrs post irradiation by MTT assay; assay type: functional, cell-based; settings: Cricetulus griseus
[2] = ROS-generating activity of the sono-irradiated compound assessed as singlet oxygen generation measuring reduction in absorbance at 410 nm at 5 uM by DPBF oxidation method; parameters: scale not given: the % may be the effect or the level left
[3] = system: CHO; experiment: Cytotoxicity against CHO cells assessed as cell death at 0.1 to 100 uM after 3 hrs followed by photo-irradiation for 30 secs measured 24 hrs post irradiation by MTT assay; assay type: functional, cell-based; settings: Cricetulus griseus
[4] = system: CHO; experiment: Cytotoxicity against CHO cells assessed as cell death at 0.1 to 100 uM after 3 hrs followed by sono-irradiation for 30 secs measured 24 hrs post irradiation by MTT assay; assay type: functional, cell-based; settings: Cricetulus griseus
[5] = ROS-generating activity of the photo/sono-irradiated compound assessed as singlet oxygen generation measuring reduction in absorbance at 410 nm at 5 uM by DPBF oxidation method; parameters: scale not given: the % may be the effect or the level left
[6] = ROS-generating activity of the photo-irradiated compound assessed as singlet oxygen generation measuring reduction in absorbance at 410 nm at 5 uM by DPBF oxidation method; parameters: scale not given: the % may be the effect or the level left
[7] = system: CHO; experiment: Cytotoxicity against CHO cells assessed as cell viability at 100 uM after 3 hrs by MTT assay; assay type: functional; settings: Cricetulus griseus, read-out: Activity
[8] = system: CHO; experiment: Cytotoxicity against CHO cells assessed as cell death at 100 uM after 3 hrs followed by photo/sono-irradiation for 30 secs measured 24 hrs post irradiation by MTT assay relative to photo-irradiated cells; assay type: functional, Cricetulus griseus
[9] = system: CHO; experiment: Cytotoxicity against CHO cells assessed as cell death at 100 uM after 3 hrs followed by photo/sono-irradiation for 30 secs measured 24 hrs post irradiation by MTT assay relative to sono-irradiated cells; assay type: functional, Cricetulus griseus
[10] = system: CHO; experiment: Cytotoxicity against CHO cells after 3 hrs by MTT assay; assay type: functional, Cricetulus griseus
[11] = system: CHO; experiment: Cytotoxicity against CHO cells after 3 hrs followed by photo-irradiation for 30 secs measured 24 hrs post irradiation by MTT assay; assay type: functional, Cricetulus griseus
[12] = system: CHO; experiment: Cytotoxicity against CHO cells after 3 hrs followed by sono-irradiation for 30 secs measured 24 hrs post irradiation by MTT assay; assay type: functional, Cricetulus griseus
[13] = system: CHO; experiment: Cytotoxicity against CHO cells after 3 hrs followed by photo/sono-irradiation for 30 secs measured 24 hrs post irradiation by MTT assay; assay type: functional, Cricetulus griseus
[14] = system: CHO; experiment: Cytotoxicity against CHO cells assessed as cell death at 100 uM after 3 hrs followed by photo-irradiation for 30 secs measured 24 hrs post irradiation by MTT assay; assay type: functional, Cricetulus griseus
[15] = system: CHO; experiment: Cytotoxicity against CHO cells assessed as cell death at 100 uM after 3 hrs followed by sono-irradiation for 30 secs measured 24 hrs post irradiation by MTT assay; assay type: functional, Cricetulus griseus
[16] = system: CHO; experiment: Cytotoxicity against CHO cells assessed as cell death at 100 uM after 3 hrs followed by photo/sono-irradiation for 30 secs measured 24 hrs post irradiation by MTT assay; assay type: functional, Cricetulus griseus

**Q.** What does the source list for `CN(C)c1ccc2nc3ccc(=[N+](C)C)cc-3sc2c1`?
**A.** Activity [1]: Active; Activity [2]: 40.1%; Activity [3]: Active; Activity [4]: Active; Activity [5]: 71.8%; Activity [6]: 38.8%

**Q.** Which viability at 100 µM [7] does the source give for `CN(C)c1ccc2nc3ccc(N(C)C)cc3[s+]c2c1.[Cl-]` [METHYLENE BLUE ANHYDROUS] here?
**A.** Its viability at 100 µM is 80%.

**Q.** And the “fold change (FC)” value [8]?
**A.** Its value is 2.

**Q.** What about the Activity [9] of the same compound?
**A.** Its Activity is 43%.

**Q.** Which results are given for `O=C([O-])c1c(Cl)c(Cl)c(Cl)c(Cl)c1-c1c2cc(I)c(=O)c(I)c-2oc2c(I)c([O-])c(I)cc12.[Na+].[Na+]` [ROSE BENGAL SODIUM]?
**A.** viability at 100 µM [7]: 65%; LD50 [10]: 138.4 µmol; Activity [2]: 58.4%; LD50 [11]: 3.3 µmol; LD50 [12]: 38.5 µmol; Activity [5]: 74.9%; LD50 [13]: 2 µmol; Activity [6]: 44.7%; Activity [14]: 95%; Activity [15]: 95%; Activity [16]: 95%
